This passage reports IC50 results from patent US8343957B2, “Therapeutic pyrazoloquinoline urea derivatives” (Dart Neuroscience (Cayman) Ltd., priority 2007, dated 2013).

For this test, the target named is GABAA central benzodiazepine receptor. Briefly: Benzodiazepine Binding Assay. The settings on record: read-out: BZ binding Assay IC50; 1 nM (3H)-flunitrazepam, rat whole brain (except cerebellum) membranes, 60 minutes at 25° C.
In the case of `O=C(N1CCOCC1)n1cc2c(=O)n(-c3ccccc3)nc-2c2ccccc21` [Compd 13, 5-(Morpholine-4-carbonyl)-2-phenyl-2,5-dihydro-pyrazolo-(4,3-c)quinolin-3-one], the IC50 (as a rule, the concentration at which inhibition is half-maximal) was over 1000 nM. To `CC(C)N1CCN(C(=O)n2cc3c(=O)n(-c4ccccc4)nc-3c3cc(F)ccc32)CC1` [Compd 19, 5-(4-Isopropylpiperazine-1-carbonyl)-8-fluoro-2-phenyl-2,5-dihydro-pyrazolo-(4,3-c)quinolin-3-one] belongs under 1000 nM. To `CCCN1CCN(C(=O)n2cc3c(=O)n(-c4ccccc4)nc-3c3ccccc32)CC1` [Compd 40, 5-(4-Propylpiperazine-1-carbonyl)-2-phenyl-2,5-dihydro-pyrazolo-(4,3-c) quinolin-3-one] belongs under 1000 nM; to `CC(C)N1CCN(C(=O)n2cc3c(=O)n(-c4ccc(Cl)cc4)nc-3c3cc(F)ccc32)CC1` [Compd 35, 5-(4-Isopropylpiperazine-1-carbonyl)-8-fluoro-2-(4-chlorophenyl)-2,5-dihydro-pyrazolo-(4,3-c)quinolin-3-one], under 1000 nM; to `CC(C)N1CCN(C(=O)n2cc3c(=O)n(-c4ccccc4)nc-3c3cc(N4CCOCC4)ccc32)CC1` [Compd 34, 5-(4-Isopropylpiperazine-1-carbonyl)-8-morpholino-2-phenyl-2,5-dihydro-pyrazolo-(4,3-c)quinolin-3-one], under 1000 nM.

As to `Cc1c2c(=O)n(-c3ccccc3)nc-2c2cc(F)c(F)cc2n1C(=O)N1CCN(C)CC1` [Compd 47, 5-(4-Methylpiperazine-1-carbonyl)-7,8-difluoro-4-methyl-2-phenyl-2,5-dihydro-pyrazolo-(4,3-c)quinolin-3-one], the IC50 is over 1000 nM. As for `CC1CN(C(=O)n2cc3c(=O)n(-c4ccccc4)nc-3c3ccccc32)CC(C)N1` (stereo not drawn) [Compd 11, 5-(3,5-Dimethylpiperazine-1-carbonyl)-2-phenyl-2,5-dihydro-pyrazolo-(4,3-c)quinolin-3-one], the IC50 is under 1000 nM.

In the case of `Cc1ccc2c(c1)c1nn(-c3ccccc3)c(=O)c-1cn2C(=O)N1CCC(F)CC1` [Compd 28, 5-(4-Fluoropiperidine-1-carbonyl)-8-methyl-2-phenyl-2,5-dihydro-pyrazolo-(4,3-c)quinolin-3-one], the 50% inhibitory concentration (IC50) was under 1000 nM. Consider `CC(C)N1CCN(C(=O)n2cc3c(=O)n(-c4ccccc4)nc-3c3cc(F)c(F)cc32)CC1` [Compd 21, 5-(4-Isopropylpiperazine-1-carbonyl)-7,8-difluoro-2-phenyl-2,5-dihydro-pyrazolo-(4,3-c)quinolin-3-one], for which the IC50 was under 1000 nM. To `Cc1ccc2c(c1)c1nn(-c3ccccc3)c(=O)c-1cn2C(=O)N1CCC(O)CC1` [Compd 27, 5-(4-Hydroxypiperidine-1-carbonyl)-8-methyl-2-phenyl-2,5-dihydro-pyrazolo-(4,3-c)quinolin-3-one] belongs under 1000 nM; to `O=C(N1CCC(O)CC1)n1cc2c(=O)n(-c3ccccc3)nc-2c2ccccc21` [Compd 30, 5-(4-Hydroxypiperidine-1-carbonyl)-2-phenyl-2,5-dihydro-pyrazolo-(4,3-c)quinolin-3-one], over 1000 nM; to `CC1CN(C(=O)n2cc3c(=O)n(-c4ccccc4)nc-3c3ccccc32)CC(C)O1` (stereo not drawn) [Compd 6], under 1000 nM. As to `CN1CCN(C(=O)n2cc3c(=O)n(-c4ccccc4)nc-3c3cc(F)ccc32)CC1` [Compd 20, 5-(4-Methylpiperazine-1-carbonyl)-8-fluoro-2-phenyl-2,5-dihydro-pyrazolo-(4,3-c)quinolin-3-one], the IC50 was under 1000 nM. In the case of `O=C(N1CCC(O)CC1)n1cc2c(=O)n(-c3ccccc3)nc-2c2cc(F)c(F)cc21` [Compd 51, 5-(4-Hydroxypiperidine-1-carbonyl)-2-phenyl-7,8-difluoro-2,5-dihydro-pyrazolo[4,3-c]quinolin-3-one], the IC50 is over 1000 nM. To `Cc1ccc2c(c1)c1nn(-c3ccccc3)c(=O)c-1cn2C(=O)N1CCN(C)CC1` [Compd 26, 5-(4-Methylpiperazine-1-carbonyl)-8-methyl-2-phenyl-2,5-dihydro-pyrazolo-(4,3-c)quinolin-3-one] belongs under 1000 nM.
